{
  "source": "patent US9504676B2",
  "about": "“Molecules inhibiting a metabolic pathway involving the Syk protein tyrosine kinase and method for identifying said molecules” (CENTRE NATIONAL DE LA RECHERCHE SCIENTIFIQUE, priority 2008, dated 2016)",
  "data": [
    {"tested_on": "RBL-2H3 cells", "assay": "cells", "type": "cell-based, rat", "conditions": "not given", "method_in_brief": "(§1)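 RBL-2H3 rat basophils sensitized 12-16 h with anti-DNP IgE (0.5 μg/ml), pretreated 90 min at 37° C with compound (DMF 0.25% vehicle), then stimulated 45 min with DNP-BSA (50 ng ml^−1) or ionomycin (1.5 μM). Degranulation read as β-hexosaminidase release.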", "values": [
      {"smiles": "COC(=O)c1ccccc1-c1ccc(/C=C2/SC(=S)N(Cc3ccccc3)C2=O)o1", "note": "[Molecule C-13, methyl 2-{5-[(3-benzyl-4-oxo-2-thioxo-1,3-thiazolidin-5-ylidene)methyl]-2-furyl}benzoate]", "ionomycin-induced degranulation": "not detectably affected"}
    ]},
    {"tested_on": "RBL-2H3 cells", "assay": "cells", "type": "cell-based, rat", "conditions": "Rattus norvegicus, RBL-2H3, read-out: Degran. IC50: concentration inhibiting mast cell degranulation by 50%", "method_in_brief": "as §1", "units": {"IC50": "µg/mL"}, "values": [
      {"smiles": "COC(=O)c1ccccc1-c1ccc(/C=C2/SC(=S)N(Cc3ccccc3)C2=O)o1", "note": "[Molecule C-13, methyl 2-{5-[(3-benzyl-4-oxo-2-thioxo-1,3-thiazolidin-5-ylidene)methyl]-2-furyl}benzoate]", "IC50": 1}
    ]},
    {"tested_on": "RBL-2H3 cells", "assay": "cells", "type": "cell-based, rat", "conditions": "Rattus norvegicus; RBL-2H3 cells, 0 to 40 μM; read-out: concentration inhibiting mast cell degranulation by 50% in vitro", "method_in_brief": "as §1", "units": {"IC50": "µM"}, "values": [
      {"smiles": "COc1cc(-c2nnc(SCC(=O)Nc3ccc(Cl)cc3)n2CCc2ccccc2)cc(OC)c1OC", "note": "[Molecule 59]", "IC50": "~5"},
      {"smiles": "CCOC(=O)c1ccc(NC(=O)CC2C(=O)N(c3ccc(Cl)cc3)C(=S)N2Cc2cccnc2)cc1", "note": "(centres unmarked) [Molecule 61]", "IC50": "~5"}
    ]},
    {"tested_on": "RBL-2H3 cells", "assay": "cells", "type": "cell-based, rat", "conditions": "Rattus norvegicus; RBL-2H3 cells; read-out: Degran. IC50: concentration inhibiting mast cell degranulation by 50%", "method_in_brief": "as §1", "units": {"IC50": "µg/mL"}, "values": [
      {"smiles": "COc1cc(-c2nnc(SCC(=O)Nc3ccc(Cl)cc3)n2CCc2ccccc2)cc(OC)c1OC", "note": "[Molecule 59]", "IC50": "~2"},
      {"smiles": "C=CCn1c(CNC(=O)c2cccc(C)c2)cnc1SCC(=O)Nc1cccc(C(=O)OC(C)C)c1", "note": "[Molecule 75]", "IC50": "~5"},
      {"smiles": "CCn1c(CCC(=O)c2ccc(Cl)cc2)nnc1SCC(=O)Nc1ccc(Br)c(C)c1C", "note": "[Molecule 82]", "IC50": "~7"},
      {"smiles": "Cc1cc(C(=O)Nc2ccccc2C(=O)O)ccc1NC(=O)COc1ccc(C(C)C)cc1", "note": "[Molecule 49, 2-[(4-{[(4-isopropylphenoxy)acetyl]amino}-3-methylbenzoyl)amino] benzoic acid]", "IC50": "~10"},
      {"smiles": "CCOC(=O)c1ccc(NC(=O)CSc2nnc(-c3ccco3)c(-c3ccco3)n2)cc1", "note": "[Molecule 54, ethyl 4-({[(5,6-di-2-furyl-1,2,4-triazin-3-yl)thio]acetyl}amino)benzoate]", "IC50": "~5"},
      {"smiles": "COc1ccc(C)cc1NC(=O)c1ccc(CN2CCC(Cc3ccccc3)CC2)cc1", "note": "[Molecule 17, 4-[(4-benzyl-1-piperidinyl)methyl}-N-(2-methoxy-5-methylphenyl)benzamide]", "IC50": "> 10"},
      {"smiles": "O=C(NCc1nnc(NCc2nc3ccccc3c(=O)[nH]2)n1-c1ccccc1)c1ccccc1F", "note": "[Molecule 29]", "IC50": "~10"},
      {"smiles": "COc1ccc(S(=O)(=O)N(CCc2ccccc2)CC(=O)Nc2ccc(C(N)=O)cc2)cc1", "note": "[Molecule 18]", "IC50": "> 10"},
      {"smiles": "CCOC(=O)C1=C(C)NC2=C(C(=O)c3ccccc32)C1c1cc(Br)ccc1OCC(=O)O", "note": "(centres unmarked) [Molecule 3, {4-bromo-2-[3-(ethoxy carbonyl)-2-methyl-5-oxo-4,5-dihydro-1H-indeno[1,2-b]pyridin-4-yl]phenoxy} acetic acid]", "IC50": "> 10"},
      {"smiles": "CCOC(=O)c1ccc(NC(=O)CC2C(=O)N(c3ccc(Cl)cc3)C(=S)N2Cc2cccnc2)cc1", "note": "(centres unmarked) [Molecule 61]", "IC50": "~2"},
      {"smiles": "COc1cccc(C2C(C(=O)c3ccc(C)cc3)=C(O)C(=O)N2CCCN2CCOCC2)c1", "note": "(centres unmarked) [Molecule 4, 3-hydroxy-5-(3-methoxyphenyl)-4-(4-methylbenzoyl)-1-[3-(4-morpholinyl)propyl]-1,5-dihydro-2H-pyrrol-2-one]", "IC50": "> 10"},
      {"smiles": "O=C(C1=C(O)C(=O)N(Cc2cccnc2)C1c1cccc(Oc2ccccc2)c1)c1ccc(Cl)cc1", "note": "(centres unmarked) [Molecule 1, 4-(4-chlorobenzoyl)-3-hydroxy-5-(3-phenoxyphenyl)-1-(3-pyridinylmethyl)-1,5-dihydro-2H-pyrrol-2-one]", "IC50": "> 10"},
      {"smiles": "CCOC(=O)c1sc(N2C(=O)C(O)=C(C(=O)c3ccc(F)cc3)C2c2ccc(C)cc2)nc1C", "note": "(centres unmarked) [Molecule 10, ethyl 2-[3-(4-fluorobenzoyl)-4-hydroxy-2-(4-methylphenyl)-5-oxo-2,5-dihydro-1H-pyrrol-1-yl]-4-methyl-1,3-thiazole-5-carboxylate]", "IC50": "~10"},
      {"smiles": "C=CCn1c(SCC(=O)Nc2cccc(OC)c2)nnc1C(C)NC(=O)c1ccccc1", "note": "(centres unmarked) [Molecule 66, N-{1-[4-allyl-5-({2-[(3-methoxyphenyl)amino]-2-oxoethyl}thio)-4H-1,2,4-triazol-3-yl]ethyl} benzamide]", "IC50": "~5"},
      {"smiles": "CCOC(=O)c1ccc(N2C(=O)C(O)=C(C(=O)c3ccccc3)C2c2ccc(ON)cc2OC)cc1", "note": "(centres unmarked) [Molecule 6]", "IC50": "> 10"},
      {"smiles": "CCOc1ccc(NC(=O)CC2C(=O)N(c3ccc(OC)cc3)C(=S)N2CCN2CCOCC2)cc1", "note": "(centres unmarked) [Molecule 84, N-(4-ethoxyphenyl)-2-{1-(4-methoxyphenyl)-3-[2-(4-morpholinyl)ethyl]-5-oxo-2-thioxo-4-imidazolidinyl}acetamide]", "IC50": "~7"},
      {"smiles": "COc1ccc(C2C(C(=O)c3cccs3)=C(O)C(=O)N2CCCn2ccnc2)c(OC)c1", "note": "(centres unmarked) [Molecule 2]", "IC50": "> 10"},
      {"smiles": "COc1ccccc1C(=O)Nc1ccc(-c2nnc(SCC(=O)c3ccccc3)n2C)cc1", "note": "[Molecule 15, 2-methoxy-N-(4-(4-methyl-5-[(2-oxo-2-phenylethyl)thio]-4H-1,2,4-triazol-3-yl)phenyl)benzamide]", "IC50": "~2.5"},
      {"smiles": "O=C(Nc1ccccc1)c1ccc(NCCN2CCOCC2)c(S(=O)(=O)N2CCOCC2)c1", "note": "[Molecule 46, 4-{[2-(4-morpholinyl)ethyl]amino}-3-(4-morpholinylsulphonyl)-N-phenylbenzamide]", "IC50": "> 10"}
    ]}
  ]
}
